Values after ≈ are worked out from the molar mass of the structure shown. Active and inactive are the calls of the source. The rule behind the calls is not given here.
Key:
Bacillus subtilis [1] = assay: Antibacterial activity against Bacillus subtilis MTCC 121 assessed as growth inhibition after 24 hr by agar well diffusion method; format: functional; conditions: MTCC 121, 24 h
Candida albicans [2] = assay: Antifungal activity against Candida albicans MTCC 227 assessed as growth inhibition at 4 mg/mL after 24 hr by agar well diffusion method; format: functional; conditions: for zone of inhibition at 4000 µg/mL: MTCC 227, 24 h, read-out: DIZ
Candida albicans [3] = assay: Antifungal activity against Candida albicans MTCC 227 assessed as growth inhibition after 24 hr by agar well diffusion method; format: functional; conditions: MTCC 227, 24 h
Saccharomyces cerevisiae [4] = assay: Antifungal activity against Saccharomyces cerevisiae MTCC 170 assessed as growth inhibition after 24 hr by agar well diffusion method; format: functional; conditions: MTCC 170, 24 h
Bacillus subtilis [5] = assay: Antibacterial activity against Bacillus subtilis MTCC 121 assessed as growth inhibition at 4 mg/mL after 24 hr by agar well diffusion method; format: functional; conditions: for zone of inhibition at 4000 µg/mL: MTCC 121, 24 h, read-out: DIZ
Staphylococcus aureus [6] = assay: Antibacterial activity against Staphylococcus aureus MTCC 96 assessed as growth inhibition at 4 mg/mL after 24 hr by agar well diffusion method; format: functional; conditions: for zone of inhibition at 4000 µg/mL: MTCC 96, 24 h, read-out: DIZ
Escherichia coli = assay: Antibacterial activity against Escherichia coli MTCC 1652 assessed as growth inhibition at 4 mg/mL after 24 hr by agar well diffusion method; format: functional, organism-based
Saccharomyces cerevisiae [7] = assay: Antifungal activity against Saccharomyces cerevisiae MTCC 170 assessed as growth inhibition at 4 mg/mL after 24 hr by agar well diffusion method; format: functional; conditions: for zone of inhibition at 4000 µg/mL: MTCC 170, 24 h, read-out: DIZ
Staphylococcus aureus [8] = assay: Antibacterial activity against Staphylococcus aureus MTCC 96 assessed as growth inhibition after 24 hr by agar well diffusion method; format: functional; conditions: MTCC 96, 24 h

Row | SMILES | MIC (Bacillus subtilis [1]) [µg/mL] | zone of inhibition at 4000 µg/mL (Candida albicans [2]) [mm] | MIC (Candida albicans [3]) [µg/mL] | MIC (Saccharomyces cerevisiae [4]) [µg/mL] | zone of inhibition at 4000 µg/mL (Bacillus subtilis [5]) [mm] | zone of inhibition at 4000 µg/mL (Staphylococcus aureus [6]) [mm] | growth inhibition (GI) (Escherichia coli) | zone of inhibition at 4000 µg/mL (Saccharomyces cerevisiae [7]) [mm] | MIC (Staphylococcus aureus [8]) [µg/mL] | growth inhibition (GI) (Candida albicans [2]) | growth inhibition (GI) (Saccharomyces cerevisiae [7]) | growth inhibition (GI) (Bacillus subtilis [5]) | growth inhibition (GI) (Staphylococcus aureus [6])
1 | NS(=O)(=O)c1ccc(-n2nc(-c3ccccc3)c3c(C(F)(F)F)cc(-c4ccc(Br)cc4)nc32)cc1 | 64 (≈ 112 µM) | 13.6 | > 256 | 256 (≈ 446 µM) | 17.6 | 18.3 | inactive | 14.6 | 64 (≈ 112 µM) |  |  |  | 
2 | COc1ccc(-c2cc(C(F)(F)F)c3c(-c4ccccc4)nn(-c4ccc(S(N)(=O)=O)cc4)c3n2)cc1 | 32 (≈ 61 µM) | 15.6 | 128 (≈ 244 µM) | 256 (≈ 488 µM) | 21.6 | 19.3 | inactive | 14.6 | 64 (≈ 122 µM) |  |  |  | 
3 | C[C@@H]1[C@H](O)[C@@H](C)/C=C/C=C/C=C/C=C/C=C/C=C/C=C/[C@H](O[C@@H]2O[C@H](C)[C@@H](O)[C@H](N)[C@@H]2O)C[C@@H]2O[C@](O)(C[C@@H](O)C[C@@H](O)[C@H](O)CC[C@@H](O)C[C@@H](O)CC(=O)O[C@H]1C)C[C@H](O)[C@H]2C(=O)O [AMPHOTERICIN B] |  | 16.6 | 20 (≈ 21.6 µM) | 20 (≈ 21.6 µM) |  |  |  | 19.3 |  |  |  |  | 
4 | Cc1ccc(-c2nn(-c3ccc(S(N)(=O)=O)cc3)c3nc(-c4ccccc4)cc(C(F)(F)F)c23)cc1 | 128 (≈ 252 µM) |  |  |  | 17.6 | 18.3 | inactive |  | 64 (≈ 126 µM) | inactive | inactive |  | 
5 | NS(=O)(=O)c1ccc(-n2nc(-c3ccccc3)c3c(C(F)(F)F)cc(-c4ccc(Cl)cc4)nc32)cc1 | 128 (≈ 242 µM) |  |  |  | 16.3 | 15 | inactive |  | 128 (≈ 242 µM) | inactive | inactive |  | 
6 | NS(=O)(=O)c1ccc(-n2nc(-c3ccc(Cl)cc3)c3c(C(F)(F)F)cc(-c4ccccc4)nc32)cc1 |  |  |  |  |  |  | inactive |  |  | inactive | inactive | inactive | inactive
7 | NS(=O)(=O)c1ccc(-n2nc(-c3ccc(Cl)cc3)c3c(C(F)(F)F)cc(-c4ccc(F)cc4)nc32)cc1 |  |  |  |  |  |  | inactive |  |  | inactive | inactive | inactive | inactive
8 | Cc1ccc(-c2nn(-c3ccc(S(N)(=O)=O)cc3)c3nc(-c4ccc(Cl)cc4)cc(C(F)(F)F)c23)cc1 | 128 (≈ 236 µM) |  |  |  | 16.3 | 15.6 | inactive |  | 128 (≈ 236 µM) | inactive | inactive |  | 
9 | NS(=O)(=O)c1ccc(-n2nc(-c3ccccc3)c3c(C(F)(F)F)cc(-c4ccccc4)nc32)cc1 | 128 (≈ 259 µM) | 15.3 | 64 (≈ 129 µM) | 64 (≈ 129 µM) | 17 | 18.6 | inactive | 16.3 | 64 (≈ 129 µM) |  |  |  | 
10 | Cc1cc(C(F)(F)F)c2c(-c3ccccc3)nn(-c3ccc(S(N)(=O)=O)cc3)c2n1 | 64 (≈ 148 µM) | 16.3 | 64 (≈ 148 µM) | 64 (≈ 148 µM) | 20.3 | 19.3 | inactive | 15.3 | 64 (≈ 148 µM) |  |  |  | 
11 | Cc1ccc(-c2cc(C(F)(F)F)c3c(-c4ccc(C)cc4)nn(-c4ccc(S(N)(=O)=O)cc4)c3n2)cc1 | 128 (≈ 245 µM) |  |  |  | 16.3 | 15.3 | inactive |  | 128 (≈ 245 µM) | inactive | inactive |  | 
12 | NS(=O)(=O)c1ccc(-n2nc(-c3ccc(Cl)cc3)c3c(C(F)(F)F)cc(-c4ccc(Cl)cc4)nc32)cc1 |  |  |  |  |  |  | inactive |  |  | inactive | inactive | inactive | inactive
13 | NS(=O)(=O)c1ccc(-n2nc(-c3ccc(Cl)cc3)c3c(C(F)(F)F)cc(C(F)(F)F)nc32)cc1 | 128 (≈ 246 µM) | 16.3 | 64 (≈ 123 µM) | 64 (≈ 123 µM) | 15.6 | 16.3 | inactive | 14.6 | 128 (≈ 246 µM) |  |  |  | 

— ChEMBL document CHEMBL3045429, “Exploration of antimicrobial potential of pyrazolo[3,4-b]pyridine scaffold bearing benzenesulfonamide and trifluoromethyl moieties” (2013)
